In patent US10919856B2 (priority 2016, dated 2021):
Where a name gives a salt, the structure may show the parent alone.

Assays:
[1] = target: influenza virus neuraminidase (wild-type) (Influenza A virus, UniProt Q9IGQ6); type: biochemical
influenza = conditions: in vivo; cited from earlier work

Sequence of influenza virus neuraminidase (wild-type) (Q9IGQ6 whole entry, looked up): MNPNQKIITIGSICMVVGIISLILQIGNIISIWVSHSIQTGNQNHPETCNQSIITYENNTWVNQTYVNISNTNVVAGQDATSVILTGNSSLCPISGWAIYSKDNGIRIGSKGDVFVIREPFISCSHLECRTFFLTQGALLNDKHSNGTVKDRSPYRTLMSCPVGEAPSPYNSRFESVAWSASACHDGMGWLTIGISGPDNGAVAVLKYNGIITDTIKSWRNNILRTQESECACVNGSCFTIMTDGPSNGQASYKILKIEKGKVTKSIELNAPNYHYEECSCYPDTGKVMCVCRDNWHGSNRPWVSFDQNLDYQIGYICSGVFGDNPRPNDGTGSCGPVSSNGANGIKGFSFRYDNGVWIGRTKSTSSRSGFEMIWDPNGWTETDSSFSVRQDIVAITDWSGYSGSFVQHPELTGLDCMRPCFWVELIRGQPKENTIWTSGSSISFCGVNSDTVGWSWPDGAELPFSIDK

COCCO[C@@H]1CCCN([C@@H]2C=C(C(=O)O)C[C@H](N)[C@H]2NC(C)=O)C1 [Example 1, (3R,4R,5S)-4-acetamido-5-amino-3-((3S)-3-(2-methoxylethoxyl)piperidin)-1-cyclohexene-1-carboxylic acid trifluoroacetate]
inhibiting activity on wild-type virus strains [1]: perfect inhibiting activities

COCCO[C@@H]1CCCN([C@@H]2C=C(C(=O)O)C[C@H](NC(=N)N)[C@H]2NC(C)=O)C1 [Example 11, (3R,4R,5S)-4-acetamido-5-guanidino-3-((3S)-(2-methoxylethyoxyl)piperidin)-1-cyclohexene-1-carboxylic acid trifluoroacetate]
inhibiting activity on wild-type virus strains [1]: perfect inhibiting activities

CCOC(=O)C1=C[C@@H](OC(CC)CC)[C@H](NC(C)=O)[C@@H](N)C1.O=P(O)(O)O [Oseltamivir phosphate, ethyl (3R,4R,5S)-4-acetamido-5-amino-3-(1-ethylpropoxyl)-1-cyclohexene-1-carboxylate phosphate]
reduction of severity level of influenza symptoms (influenza): 40%
shortening of the state of illness (influenza): 3.1 days
